The subject of one test is Colo320 cells. Description: Colo320 xenograft tumor growth. In kind it is in vivo, NMRI-Foxn1^nu/nu mice. On the procedure:
Xenografts experiments were carried out in 4 weeks old female NMRI-Foxn1^nu/nu mice that were subcutaneously injected with Colo320 cells. For each tumor, 2 million cells were resuspended in Matrigel Matrix: PBS solution (1:1) (Corning, #354234) and 100 uL of volume was injected in the flanks of each mouse. Tumors were measured every other day using digital vernier caliper until the volume reached […]. At this point, they were sacrificed with CO2 and posterior cervical disruption. Tumors were isolated and frozen in -80°C for future analysis. For volume calculation, we used the formula V = ((LxW^2))/(2) [formula] in mm^3, were V = tumor volume, W = tumor width and L = tumor length.
To inhibit Mitochondrial Complex I in vivo, we employed IACS-010759 (Selleckchem, #S8731), a small-molecule inhibitor of complex I. IACS was dissolved in DMSO at a 10% concentration and then prepared for administration at 0.5% in Methyl cellulose (Sigma, #M0262). Each mouse received a dose of 10 mg/kg for five consecutive days via oral gavage.
We propose that sensitivity to OXPHOS inhibitors can be, at least in part, mediated by combined expression of the NADPH-producing enzymes G6PD and ME1. To test this hypothesis […], we correlated protein expression of G6PD and ME1 for hundreds of cell lines. […]

The next test deals with 143B cells. Description: Time-course cell proliferation / survival of 143B cells. In kind it is cell-based. The note with it: 143B cells under combined Piericidin and G6PDi, supplemented. How it is done: All cell lines, 143b, HeLa, U2OS, and transmitochondrial cybrids carrying mutation in CI (ND2), CIII (CytB) or CIV (Cox2) subunits, were maintained in DMEM high glucose (HyClone), 10% FBS and 1% P/S at 37°C with 5% CO2. Mitochondrial mutant cells were cultured with supplementation of 50 µg/mL uridine. The selected cancer cell lines with different levels of malic enzyme (HCC15, KYSE410, CAKI1, J82, MDAMB453, Colo320, NCIH1703) were obtained from the DSMZ-German Collection of Microorganisms and Cell Cultures GmbH and cultured in the same DMEM 10% FBS medium. OCI-Lys3 and RCH-ACV cell lines (cells in suspension), were obtained from the same repository and cultured in RPMI 10% FBS medium. Transfections for gain- and loss-of-function studies were performed according to the manufacturer's instructions using the polyfect reagent (Qiagen, 301107). […] Subsequently, cells were trypsinized and quantified using a hemocytometer (NanoEnTek, DHC-N01). Cell viability was quantified using propidium iodide (PI; 50 µg/ml) staining.
Next, we conducted time-course experiments to gain further knowledge on the metabolic determinants underlying the observed synthetic lethality between PPP and OXPHOS. 143B cells were treated either with Piericidin or G6PDi (selective inhibitor of G6PD) alone or the combination of both and cell proliferation was quantified over the course of 96 h. […]

For another test, the system named is 143B cell lines. Description: Cell viability of CRISPR knock-out 143B cell lines treated with ETC inhibitors. In kind it is cell-based. On the procedure: All cell lines, 143b, HeLa, U2OS, and transmitochondrial cybrids carrying mutation in CI (ND2), CIII (CytB) or CIV (Cox2) subunits, were maintained in DMEM high glucose (HyClone), 10% FBS and 1% P/S at 37°C with 5% CO2. Mitochondrial mutant cells were cultured with supplementation of 50 µg/mL uridine. The selected cancer cell lines with different levels of malic enzyme (HCC15, KYSE410, CAKI1, J82, MDAMB453, Colo320, NCIH1703) were obtained from the DSMZ-German Collection of Microorganisms and Cell Cultures GmbH and cultured in the same DMEM 10% FBS medium. OCI-Lys3 and RCH-ACV cell lines (cells in suspension), were obtained from the same repository and cultured in RPMI 10% FBS medium. Transfections for gain- and loss-of-function studies were performed according to the manufacturer's instructions using the polyfect reagent (Qiagen, 301107). For cell number and proliferation experiments, cells were seeded in 12 or 6-well plates and allowed to proliferate for the specified durations. Subsequently, cells were trypsinized and quantified using a hemocytometer (NanoEnTek, DHC-N01). Cell viability was quantified using propidium iodide (PI; 50 µg/ml) staining.
Generation of knockout cell lines using CRISPR-Cas9 technology was performed with the lenti-CRISPR v2 vector (Addgene #52961). Guide sequences are: • sgGFPT1, 5-[…]-3 (SEQ ID NO: 1); • sgG6PD, 5-[…]-3 (SEQ ID NO: 2); • sgPHGDH, 5-[…]-3 (SEQ ID NO: 3); • sgMPC1, 5-[…]-3 (SEQ ID NO: 4) • sgPC, 5-CAGGCCCGGAACACACGGA-3 (SEQ ID NO: 5); • sgACLY, 5-[…]-3 (SEQ ID NO: 6); • sgME1, 5-[…]-3 (SEQ ID NO: 7).
To investigate glucose-dependent alternative metabolic pathways that become essential upon ETC inhibition, we generated through CRISPR/Cas9 technology, knock-out (KO) 143B cell lines for each of the following rate-limiting enzymes and transporters. We selected glucose 6 phosphate dehydrogenase (G6PD) for the PPP, Glutamine-Fructose-6-Phosphate Transaminase 1 (GFPT1) for the hexosamine pathway, Phosphoglycerate Dehydrogenase (PHGDH) for the serine biosynthesis pathway and Mitochondrial Pyruvate Carrier 1 (MPC1) to prevent pyruvate entry into the mitochondria. These KO and Control cells were treated with two specific ETC inhibitors (Piericidin A that targets Complex I and Antimycin A that targets Complex III) and cell viability was assessed after 3 days of treatment. […] We took advantage of the fruit fly Drosophila melanogaster model, as it is cost- and time-efficient and recapitulate a wide range of phenotypes seen in patients with metabolic and mitochondrial disorders. We obtained flies carrying mutations in Zw and Pgd genes (named: Pgd^39 Zw^lo2a), corresponding to human orthologs G6PD and 6PGD respectively. […]

`Cc1nc(-c2nc(-c3ccc(OC(F)(F)F)cc3)no2)nn1Cc1cccc(N2CCC(S(C)(=O)=O)CC2)c1` [IACS-010759]: the “effect on tumor size” value in the test on Colo320 cells (Colo320 cells ectopically expressing ME1) was “completely lost”. The tumor size result in the test on Colo320 cells (Colo320 cells subcutaneous in nude mice, 10 mg/kg oral gavage) was “prominently reduced”.
In the case of `N[C@@H](CCC(=O)N[C@@H](CS)C(=O)NCC(=O)O)C(=O)O` [GSH], the cell death phenotype entry in the test on 143B cells is “rescued”.
Antimycin A: the cell viability result in the test with 143B cell lines (G6PD KO 143B cells, after 3 days of treatment) is listed as “sensitive”. In addition, in the test on 143B cell lines (KO cells for GFPT1, PHGDH or MPC1, after 3 days of treatment), the survival or proliferation entry is listed as “no differences”.

(Values after patent EP4653001A1, “TREATMENT, DIAGNOSIS AND/OR PROGNOSIS OF MITOCHONDRIAL DISEASES” (Universidad Autónoma de Madrid, priority 2024, dated 2025).)
